According to a melting point compilation (Tetko et al.; mined from patent text by program, amines drawn as free bases though some values may be those of a salt):

First: C[C@@H](C(N)=O)c1ccc(NS(=O)(=O)c2ccccc2)cc1
Second: O=C(O)c1ccc(NC(=O)[C@H](CO)NS(=O)(=O)c2ccc(Cl)cc2)cc1
The melting point of the first is lower: 152 to 153 °C for the first, 231 to 234 °C for the second.

Compared with `Cc1cc(=O)[nH]c2cc(OCCCN3CCN(C(c4ccccc4)c4ccccc4)CC3)ccc12`, `COc1ccccc1N1CCN(CCCNC(=O)c2cccc3c(=O)c(C)c(C4CCCC4)oc23)CC1` is lower in melting point: 208 to 210 °C for the first, 135 to 137 °C for the second.

First: O=C(c1ccc(Br)cc1)N1CCN(c2ccncc2)CC1
Second: CCNC(=O)c1ccc(N2CCNCC2)cc1
The melting point of the first is lower: 128 to 129 °C for the first, 131 to 134 °C for the second.

First: CC(=O)Oc1cc(OCc2ccccc2)cc(OC(C)=O)c1
Second: Nc1n[nH]c2ccc(OCc3ccccc3)cc12
The melting point of the first is lower: 129 to 130 °C for the first, 193 to 195 °C for the second.

First: CCCCCCCCCCCCCCOc1ccc(C(=O)OC)cc1Cl
Second: CCCCCCCCOC(=O)c1ccc(C(=O)O)cc1
The melting point of the first is lower: 42 to 43 °C for the first, 113 °C for the second.

First: CCOC(=O)c1[nH]cc2c1NC1=C(C(=O)CCC1)C2c1ccc(Sc2nc3cc(Cl)c(Cl)cc3[nH]2)o1 (stereo not given)
Second: CCOCc1cc(OC)c(-c2ccc(C[C@H](NC(=O)c3c(Cl)cccc3Cl)C(=O)OCC)cc2)c(OC)c1
The melting point of the first is higher: 180 °C for the first, 91 to 94 °C for the second.

Compared with `COC1=CC2SC2C2(OC)SC12OC` (stereo not given), `COCc1cccc(C(O)c2nc(OC)cc(OC)n2)c1N` (stereo not given) is lower in melting point: 143 to 144 °C for the first, 40 to 42 °C for the second.

First: Cc1cc(-n2nc(C(F)(F)F)cc2-c2ccc(-c3ccco3)cc2)ccc1S(C)(=O)=O
Second: CS(=O)(=O)c1ccc(-n2nc(C(F)(F)F)cc2-c2ccc(-c3ccco3)c(Cl)c2)cc1
The melting point of the first is lower: 135 to 139 °C for the first, 143 to 145 °C for the second.

First: CC1=C(c2ccccc2)n2nc(C)c(C(N)=O)c2NC1
Second: COc1ccc(CN2CC(c3ccccc3)=C(O)C2=O)cc1
The melting point of the first is higher: 208 to 210 °C for the first, 195 to 198 °C for the second.

First: CNc1c(NCCSCc2[nH]cnc2C)c(=O)c1=O
Second: CCOC(=O)CNC(=O)COc1c(F)cc(CSCCNS(=O)(=O)c2ccc(Cl)cc2)cc1F
The melting point of the first is higher: 208 °C for the first, 88.5 to 89.5 °C for the second.

First: CCOC(=O)CCCOc1cccc(C=Cc2ccc3ccc(Br)cc3n2)c1
Second: COC(=O)C(=O)c1ccc(OCCOc2cc3ccccc3cc2O)cc1
The melting point of the first is lower: 61 to 63 °C for the first, 177 to 178 °C for the second.

Compared with `O=C(Nc1ccc(-c2ccc(C(=O)O)cc2)cc1)OCC1c2ccccc2-c2ccccc21`, `COCCOc1ccc(-c2sc(N3C(=O)c4ccccc4C3=O)c(C(=O)c3ccc(Cl)cc3)c2CBr)cc1` is lower in melting point: 245 to 248 °C for the first, 142 to 145 °C for the second.

First: CSc1nc(C)ccc1NC(=O)CCCCCCCCSc1nc2ccccc2o1
Second: O=C(CCCCCBr)Nc1ccc(O)cc1F
The melting point of the first is higher: 99 to 100 °C for the first, 66 to 69 °C for the second.

First: CC(=S)OCc1ccc([N+](=O)[O-])cc1
Second: N=C(N)Nc1ccc(CCC(=O)O)cc1
The melting point of the first is lower: 55.5 to 57.5 °C for the first, > 300 °C for the second.

First: COc1ccc(F)cc1C(C)(C)CC(O)(CN1CC(C)NC(C)C1)C(F)(F)F (stereo not given)
Second: OC1Cc2ccc(C(F)(F)F)cc2Sc2ccc(F)cc21 (stereo not given)
The melting point of the first is lower: 61 to 62 °C for the first, 73 to 75 °C for the second.

First: CCOC(=O)C(C)(C)NC(=O)C(Br)c1ccccc1 (stereo not given)
Second: CCOC(=O)C1C=CC(c2ccccc2)n2c(=O)n(CO)c(=O)n21 (stereo not given)
The melting point of the first is lower: 81 to 83 °C for the first, 129 to 133 °C for the second.

First: COc1ccc(C=Cc2ccc(C#N)cc2)cc1
Second: C=CCOc1ccc(OCc2ccccc2)cc1
The melting point of the first is higher: 146 to 148 °C for the first, 56 to 57 °C for the second.

First: Nc1ccc2c(c1)C(=O)N(c1ccc3ccsc3c1)C2
Second: N#Cc1ccc(-n2c(N)nc3ccccc32)cc1Cl
The melting point of the first is lower: 233 to 236 °C for the first, 245 to 248 °C for the second.

First: CNc1cc(NC)c(C(=O)NCCC(=O)OC)cc1NC(=O)c1ccc(C#N)cc1
Second: CCN1CCC(NC(=O)c2ccc(NC(C)=O)cc2)N1CC (stereo not given)
The melting point of the first is higher: 208 to 210 °C for the first, 178 to 180 °C for the second.

First: CCc1c(C(=O)c2cc(C)cc(C)c2)n(CC2=CC(CO)C(CO)C2)c(=O)[nH]c1=O (stereo not given)
Second: CCCn1c(=O)[nH]c2ccc(C(=O)c3ncc4ccc(C(=O)O)cn34)cc2c1=O
The melting point of the first is lower: 79 to 80 °C for the first, 384 °C for the second.

First: CCCCC[C@@H](CNC(=O)Nc1c(OC)ccc2c1CCCC2)c1cccc2c1OCO2
Second: CCCCCC(CC(=O)Nc1cc(C(=O)Nc2ccncc2)ccc1C(C)(C)C)c1c(OC)cccc1OC (stereo not given)
The melting point of the first is lower: 137 to 138 °C for the first, 169 to 172 °C for the second.

First: Cc1ccccc1-c1c(C(=O)N(C)Cc2cc(C(F)(F)F)cc(C(F)(F)F)c2)n(C)c(=O)c2cccnc12
Second: CN(C)CCN1c2ccccc2C(=O)N(C)c2cccnc21
The melting point of the first is higher: 183 to 185 °C for the first, 109 to 110 °C for the second.

Compared with `CCC(Cc1cccc(F)c1)n1nnc2cc3c(cc2c1=O)OC1CCCN1C3=O` (stereo not given), `CS(=O)(=O)c1ccc(-c2oc3ccccc3c(=O)c2-c2cccc(F)c2)cc1` is higher in melting point: 117 to 119 °C for the first, 225 °C for the second.

First: CC(C)(C)OC(=O)Nc1cc(OCC#N)c(I)cc1[N+](=O)[O-]
Second: CCOc1ncc(I)cc1C(N)=O
The melting point of the first is lower: 125 °C for the first, 176 to 179 °C for the second.

First: NC(=O)c1ccc(F)c(Br)c1
Second: O=c1[nH]nnn1-c1ccc(Cl)cc1F
The melting point of the first is lower: 131 to 133 °C for the first, 185 to 187 °C for the second.

First: O=S1(=O)N=CN(C2CC2)c2c(Cl)cccc21
Second: C[Si](C)(C)c1[nH]c2ccccc2c1C1CC1
The melting point of the first is higher: 159 to 160 °C for the first, 78 to 81 °C for the second.

First: CC1CCN(c2ccc(Nc3ncc4c(n3)SCC(=O)N4)cc2)CC1
Second: CCOC(=O)c1ccc(OCCC2CCN(c3ccc(C)nn3)CC2)cc1
The melting point of the first is higher: 278 to 280 °C for the first, 130 °C for the second.

First: CC(=O)OCCOc1ncnc(NS(=O)(=O)c2ccc(C)cc2)c1C=O
Second: COc1ccc(NC(=O)CCc2ccc(-c3c(C)sc4nc(=NS(=O)(=O)c5ccc(C)cc5)sn34)cc2)cc1OC
The melting point of the first is lower: 130 to 144 °C for the first, 203 to 204 °C for the second.

First: COc1ccc2[nH]c3c(c2c1)C[C@@]1(C)C(=O)N(CCCN(C)C)C(=O)N1[C@@H]3c1cccc(O)c1 (racemic)
Second: COc1ccc(-c2nc3cnccc3[nH]2)c(O)c1
The melting point of the first is lower: 228 to 231 °C for the first, 255 °C for the second.

First: NN=C(c1ccc(F)cc1)c1ccc(F)cc1
Second: CC(Nn1cncn1)(c1ccc(F)cc1)c1ccc(F)cc1
The melting point of the first is lower: 78 °C for the first, 114 to 119 °C for the second.

Compared with `CCC(C(O)c1ccc(Cl)cc1)n1ncn(-c2ccc(N3CCN(c4ccccn4)CC3)nc2)c1=O` (stereo not given), `CC(O)COc1ccc(-c2ccc(C(CC3CCOCC3)c3ccc(S(=O)(=O)C4CC4)cc3)[nH]2)nc1` (stereo not given) is lower in melting point: 171 °C for the first, 116 to 118 °C for the second.

First: Cc1nc(Cc2ccc(O)cc2)c2c(c1OCCCCNC(C)C)COC2
Second: CCCCCCOc1ccc(CBr)c2c(OCCCCCC)ccc(CBr)c12
The melting point of the first is lower: 59 to 61 °C for the first, 105 to 107 °C for the second.

First: CNC(=O)c1cccc(F)c1Nc1nc(Nc2ccc3c(c2)CCCC(=O)N3CCOC)ncc1Br
Second: O=C(C1=C(Nc2ccccc2)CCC1)c1ccccc1Br
The melting point of the first is higher: 191 to 193 °C for the first, 106 to 108 °C for the second.

Compared with `CCN(CC)CCC1(C#N)c2ccccc2COc2ccccc21` (stereo not given), `CCCCN(CCCC)c1ccc(C(=O)c2ccccc2C(=O)O)cc1` is higher in melting point: 87 to 90 °C for the first, 171 to 172 °C for the second.

First: Cc1nc(-n2cnn(Cc3ccc(C(F)(F)F)o3)c2=O)sc1C(=O)NCc1cccnc1
Second: CC(C)(C)c1ccc(-c2nc(COc3cccc4cc(NS(=O)(=O)C(F)(F)F)ccc34)cs2)cc1
The melting point of the first is lower: 124 to 125 °C for the first, 174 to 175 °C for the second.

`COc1ccc(-c2nn(Cc3ccccc3)c(=O)cc2-c2ccc(OC)c(F)c2)cc1` and `COC(=O)C(=O)c1ccc(OC/C=C/c2c(C(C)C)nc3ccccc3c2-c2ccc(F)cc2)cc1` cannot be ordered by melting point: 110 to 112 °C for the first, 109 to 111 °C for the second.

Compared with `O=C(/C=C/c1cccc(-c2cccc([N+](=O)[O-])c2)c1)Nc1ccc(CN2CCCCC2)cc1`, `Oc1cccc(CN2CCCC2)c1` is lower in melting point: 178 to 179 °C for the first, 100 to 102 °C for the second.

First: COc1ccccc1-n1c(-c2sc(Nc3ccccc3)nc2-c2ccccc2)nc2ccccc2c1=O
Second: CCCc1nc2c(C)cc(-c3nc4ccccc4n3C)cc2n1Cc1ccc(-c2ccccc2S(=O)(=O)O)cc1
The melting point of the first is lower: 224 to 225 °C for the first, 307 to 310 °C for the second.

Compared with `Clc1ccc(-c2ccc[nH]2)cc1Cl`, `CC(C)C(=O)N1CCC(NC(=O)c2ccccc2Oc2ccc(Cl)cc2Cl)CC1` is higher in melting point: 49 to 51 °C for the first, 51 to 54 °C for the second.

Compared with `CC1=CC(C)(C)N2C(=O)C(=O)c3cccc1c32`, `CCCCN1C(=O)NC(Cc2ccc(C#N)cc2)C1=O` (stereo not given) is lower in melting point: 170 to 176 °C for the first, 136 °C for the second.

First: Nc1ncccc1C(=O)NCCCOc1ccc(-c2ccc(=O)[nH]n2)cc1
Second: NS(=O)(=O)c1ccc(-n2nc(CCNC(=O)Nc3cccc(C(F)(F)F)c3)cc2-c2ccccc2)cc1
The melting point of the first is higher: 232 to 234 °C for the first, 122 to 125 °C for the second.

Compared with `Cn1nc(C(F)(F)F)c(CSC2=NOC(C)(C)C2)c1OC(F)F`, `CCOC(=O)c1[nH]c(CC)c(CC)c1CC` is higher in melting point: 39 to 40 °C for the first, 47 to 49 °C for the second.

First: Fc1cc2c(cc1F)Sc1cc(F)c(F)cc1S2
Second: Cc1cc(C)cc(OCC(C)O)c1 (stereo not given)
The melting point of the first is higher: 108 °C for the first, 48.7 to 49.5 °C for the second.

First: C=C[C@@H](C[C@H](O)[C@H](CC1CCCCC1)NC(=O)[C@H](Cc1c[nH]cn1)NC(=O)[C@@H](CC(=O)N1CCC(C(=O)OCC)CC1)Cc1ccccc1)C(C)C
Second: O=C(NC1(C(=O)O)CCCCC1)C(CS)Cc1ccccc1 (stereo not given)
The melting point of the first is lower: 103 °C for the first, 193 to 195 °C for the second.

`CC(C)(C)C(O)(C=Cc1ccc(Cl)cc1)Cn1ccnc1` (stereo not given) and `Cc1cccc(Cn2cccc2C(=O)CC(=O)C(=O)O)c1` cannot be ordered by melting point: 139 to 141 °C for the first, 140 to 141 °C for the second.

First: NS(=O)(=O)c1c(C(=O)O)cnn1-c1cccc(Cl)n1
Second: COc1ccc2nc(O)nc(O)c2c1
The melting point of the first is lower: 179 to 182 °C for the first, > 290 °C for the second.

First: CC(C)(C)OC(=O)N1CCC(c2c[nH]cn2)CC1
Second: COCC1CN(c2ccc3cc(OCC4CC4)ccc3c2)C(=O)O1 (stereo not given)
The melting point of the first is higher: 198 °C for the first, 119 to 120 °C for the second.

First: Cn1cc(C2=C(c3cn(CCCSc4ncc[nH]4)c4ccccc34)C(=O)NC2=O)c2ccccc21
Second: NCCC(=O)N(c1ccccc1)c1ccccc1
The melting point of the first is higher: 130 to 132 °C for the first, 50 °C for the second.

Compared with `CCC(=O)NC[C@@H]1C[C@H]1c1c(I)ccc2c1CCO2` (relative stereo), `CCOC(=O)CC[C@H](NC(=O)c1ccc2c(c1)CCN2)C(=O)OCC` is lower in melting point: 148 to 149 °C for the first, 96 to 97 °C for the second.

First: CCSC(=NC(=O)c1ccccc1)Nc1ccccc1F
Second: O=C1c2cccc(NC(=S)Nc3cnccn3)c2C2CC3(CCN12)SCCS3 (stereo not given)
The melting point of the first is lower: 95 to 97 °C for the first, 128 °C for the second.
